Where two headings read alike, the source gives them in different places.
What was measured:
[1] = molecular target: T1, LFA-1 (CD11a) (Homo sapiens, UniProt P20701); assay: Antibody binding assay (FACS): anti-LFA-1 mAb (mouse IgG anti-human CD11a) binding to Molt3 T-cells after peptide incubation; type: cell-based; conditions: for Fluorescence, % change from control of the medium fluorescence intensity: mAb CD11a, average ± standard error of runs
T1 construct: host or cells: Molt3 human T-cell leukemia line
T1 sequence (P20701 26-1170): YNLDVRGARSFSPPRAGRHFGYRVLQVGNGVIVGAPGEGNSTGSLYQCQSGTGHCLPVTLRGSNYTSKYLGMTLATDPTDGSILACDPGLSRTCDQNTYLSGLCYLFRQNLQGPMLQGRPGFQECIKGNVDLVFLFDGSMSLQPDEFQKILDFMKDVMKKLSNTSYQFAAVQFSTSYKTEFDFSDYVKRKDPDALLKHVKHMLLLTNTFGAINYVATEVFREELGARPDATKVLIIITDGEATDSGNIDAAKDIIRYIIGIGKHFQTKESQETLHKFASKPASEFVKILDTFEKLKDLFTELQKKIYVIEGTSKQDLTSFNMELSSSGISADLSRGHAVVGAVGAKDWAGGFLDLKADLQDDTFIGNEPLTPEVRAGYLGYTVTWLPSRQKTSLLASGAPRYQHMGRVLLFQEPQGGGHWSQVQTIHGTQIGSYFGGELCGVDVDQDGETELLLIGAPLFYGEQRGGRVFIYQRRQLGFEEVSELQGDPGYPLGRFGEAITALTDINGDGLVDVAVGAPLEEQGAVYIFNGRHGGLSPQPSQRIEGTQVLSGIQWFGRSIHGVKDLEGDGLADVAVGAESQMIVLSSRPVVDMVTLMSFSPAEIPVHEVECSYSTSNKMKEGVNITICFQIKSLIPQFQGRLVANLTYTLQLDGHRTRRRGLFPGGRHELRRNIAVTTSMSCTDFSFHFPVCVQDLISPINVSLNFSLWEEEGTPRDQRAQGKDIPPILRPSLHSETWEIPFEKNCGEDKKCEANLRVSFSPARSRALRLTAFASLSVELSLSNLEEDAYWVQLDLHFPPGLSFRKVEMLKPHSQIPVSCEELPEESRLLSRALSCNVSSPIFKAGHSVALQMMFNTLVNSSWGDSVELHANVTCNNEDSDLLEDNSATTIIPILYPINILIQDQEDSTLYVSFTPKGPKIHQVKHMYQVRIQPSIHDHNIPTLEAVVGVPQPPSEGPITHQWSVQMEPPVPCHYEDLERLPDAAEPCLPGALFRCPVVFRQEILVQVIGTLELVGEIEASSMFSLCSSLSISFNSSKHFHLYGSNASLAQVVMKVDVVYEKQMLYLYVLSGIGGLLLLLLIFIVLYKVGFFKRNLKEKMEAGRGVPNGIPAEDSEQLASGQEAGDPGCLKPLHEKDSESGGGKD
T1 sequence (P05107 23-769 partner): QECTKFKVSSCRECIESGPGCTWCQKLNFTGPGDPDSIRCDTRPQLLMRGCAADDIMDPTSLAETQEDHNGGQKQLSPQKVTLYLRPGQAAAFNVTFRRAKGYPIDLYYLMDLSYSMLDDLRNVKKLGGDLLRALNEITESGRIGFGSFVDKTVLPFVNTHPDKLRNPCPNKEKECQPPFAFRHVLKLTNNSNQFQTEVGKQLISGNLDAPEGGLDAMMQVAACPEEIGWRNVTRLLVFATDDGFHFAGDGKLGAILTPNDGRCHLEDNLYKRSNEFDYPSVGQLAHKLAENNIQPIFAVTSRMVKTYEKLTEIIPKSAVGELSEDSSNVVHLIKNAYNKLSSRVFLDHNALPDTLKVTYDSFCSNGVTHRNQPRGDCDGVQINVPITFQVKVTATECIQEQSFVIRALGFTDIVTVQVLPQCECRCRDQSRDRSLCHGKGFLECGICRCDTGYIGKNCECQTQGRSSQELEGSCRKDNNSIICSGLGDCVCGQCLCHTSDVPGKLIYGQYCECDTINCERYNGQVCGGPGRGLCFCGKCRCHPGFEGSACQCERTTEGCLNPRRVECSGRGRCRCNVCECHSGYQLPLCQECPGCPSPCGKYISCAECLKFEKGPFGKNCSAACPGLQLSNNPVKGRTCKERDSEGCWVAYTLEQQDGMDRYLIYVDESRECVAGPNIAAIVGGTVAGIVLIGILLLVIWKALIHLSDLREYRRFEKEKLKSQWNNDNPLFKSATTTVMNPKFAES
Experimental: A 1 ml quantity of the Molt3 inoculum was warmed to 37° C. and transferred by pipette into about 25 ml of a growth culture medium including RPMI 1640 lymphocyte growth medium (Fisher Scientific of St. Louis, Miss.) mixed with 10% by volume fetal calf serum, 100 units/ml penicillin, 100 μg/ml streptomycin and 2 mM glutamine. The inoculated culture was incubated for three to four days at 37° C. under a normal atmosphere having about 5% CO2 added thereto. This culture was capable of being maintained indefinitely by siphoning away the top (non-cell containing) layer and adding 50 ml (or more) of growth culture medium at intervals of three to four days.
An aqueous buffer solution including Dulbecco's phosphate buffered saline and bovine serum albumin ("-PBS/BSA solution") was prepared for use, and included a mixture of 200 mg KH2 PO4, 1.15 g Na2 HPO4, 100 mg CaCl2, 200 mg KCl, 100 mg MgCl2.6H2 O, 8 g NaCl, with distilled water added to a final 1 liter volume at room temperature, thus, forming a "PBS" solution of pH 7.4 to which was added 0.5% by weight bovine serum albumin.
An aliquot of about 7 ml was removed from the incubated culture medium and subjected to washing with the PBS/BSA solution. The washing procedure was initiated by placing the aliquot in a centrifuge (Model GT422 from Jouan, distributed Piruscio & Assoc. of Manchester, Miss.) at 1400 rpm for 6.5 minutes to separate the cells from the growth medium. The supernatant fluid was decanted, a 5 ml portion of PBS/BSA solution was transferred by pipette into the pellet, and the mixture was again centrifuged as before. The resulting supernatant fluid was decanted and the cells from the pellet were resuspended in PBS/BSA solution at a titer of about 1×10^6 cells/ml. A 500 μl portion of the solution containing the resuspended cells was placed in a microcentrifuge (Marathon 13K/M from Fisher Scientific of St. Louis, Miss.) at 3500 rpm for six minutes, to provide a washed pellet.
[…] The cells were incubated with the peptide cocktail at 37° C. for 45 minutes.
After incubation with the peptide cocktail, several antibodies were successively mixed into the incubated solution. A 75 μl portion of anti-IgM solution (a mixture of 10 μl of goat anti-human IgM stock purchased from Jackson Immuno Research of Westgrove, Pa.; and 65 μl of PBS/BSA solution) was added to the peptide cocktail for blocking of nonspecific binding of the secondary antibody. The resulting mixture was incubated for 10 minutes on ice. About 0.1 μg of a primary antibody including mouse IgG anti-human CD11a (purified according to conventional protocols at the University of Kansas Department of Pharmacology and Toxicology from an American Type Culture hybridoma cell line having Catalogue Number HB-202) was next stirred into the mixture, which was then incubated for 30 minutes at room temperature. The incubated mixture was placed in a microcentrifuge at 3500 rpm for six minutes to remove the cells from the mixture, and the cell pellet was washed two times by adding 500 μl aliquots of PBS/BSA solution and microfuging to remove non-bound antibodies from the cells as before. The resulting washed pellet was resuspended in 100 μl of a secondary antibody cocktail including 5 μl of fluorescein isothiocyanate ("FITC") labeled goat anti-mouse IgG (from CALTAG of South San Francisco, Calif.) and 95 μl of PBS/BSA solution. The resulting solution was incubated for 30 minutes at room temperature in the dark.
The incubated solution including the secondary antibody cocktail was microfuged at 3500 rpm for six minutes to remove the cells from the solution, and the cell pellet was washed two times with 500 μl portions of PBS/BSA solution, as before, to remove unbound antibodies. […]

[2] = test system: Molt3 cells; assay: Cell metabolic assay (MTT); type: cell-based
Experimental: After taking the photographs in Example 3 (and in some instances no photographs were taken), cell metabolic activity was assessed by an MTT assay. A 37.5 μl portion of MTT dye (purchased from SIGMA of St. Louis, Mo.), i.e., 3-[4,5-dimethyl thiazole-2yl]-2, 5- diphenyl tetrazolium bromide; thiazolyl blue) was added to each well, and incubated with the cells at 37° C. for about six hours. After incubation, a 250 μl quantity of a MTT solubilization solution (of a type that may be purchased from either Fischer Scientific of St. Louis, Mo. or BCD Labs of Lawrence, Kans.) was added to each well, and incubated with the cells at room temperature overnight. In the morning, the spectrophotometric absorption of each plate was determined at 570 nm in a microplate ELISA reader manufactured by Cambridge Technologies of Water-town, Mass., in order to assess cell viability as an indicator of potential peptide toxicity.

[3] = test system: Molt3 cells; assay: Homotypic adhesion assay (MDHC-induced clumping of T-cells); type: cell-based, human; set-up: key to Homotypic Adhesion Amount: Any sample having a score of "+++" or "++++" is considered to have a significant ability to modulate T-cell binding interaction; Any sample having a score of "+++" or "++++" is considered to have a significant ability to modulate T-cell binding interaction; conditions: 10 μM MDHC
Experimental: As before, the T-cells were Molt3 cells prepared in RPMI 1640 growth medium according to Example 2. An approximate 7 ml aliquot of the growth medium was centrifuged (Jouan Model GT422 at 1400 rpm for 6.5 minutes), and the supernatant fluid was decanted. The pellet was resuspended in the supernatant fluid at titer of about 1×10^6 cells/ml, with the excess supernatant fluid being retained for future resuspension of the peptides.
A 228 nmol quantity of the LJCRF-1 (Sequence ID No. 6) peptide described in Table 1 was diluted with the supernatant fluid to a 500 μl final volume, and filtered in microcentrifuge filter tubes (0.22 micron filter; 3500 rpm for 6 minutes). Serial dilution of the filtered peptide with supernatant fluid was conducted to yield five 125 μl peptide solutions to give respective concentrations of about 115 μM, 230 μM, 460 μM, 910 μM, and 1.82 mM. At each concentration, a 125 μl portion of the cell suspension was pipetted into each 125 μl portion of the peptide solutions to yield combined samples having a 250 μl volume. The 250 μl samples were seeded into individual wells in a 48-well tissue culture grade plate (from Costar of Cambridge, Md.) and incubated at 37° C. for 30 minutes. Each sample received 5 μl of 2,5-methyl dihydroxy cinnamate ("MDHC") for a 10 μM final concentration, and was subsequently incubated for about 10 hours at 37° C. MDHC induces intercellular clumping of human T-cells (Tibbetts, Butler, and Benedict, submitted) by activating the LFA/ICAM binding interaction between respective cells.
Pictures were taken of five random fields per sample using an Olympus photomicroscope having a 0.8 mm field at 400×magnification, and a 3.2 mm field of view at 100×magnification. The amount of clumping observed was quantified by determining the mean number of clumps per field ± a standard error.
FIGS. 5, 6, and 7 replicate photographs taken from exemplary peptide assays. FIG. 5 is a photograph of the control sample having no peptides and no MDHC added, from which essentially no clumping of cells is observed. […] Any sample having a score of "+++" or "++++" is considered to have a significant ability to modulate T-cell binding interaction. This is similar to results obtained by incubating similarly treated cells with antibody against either LFA or ICAM.
The homotypic adhesion assay assesses the actual ability of a candidate peptide to modulate the ability of T-cells to adhere with one another.

[4] = molecular target: T2, ICAM-1 (CD54) (Homo sapiens, UniProt P05362); assay: Antibody binding assay (FACS): anti-ICAM-1 mAb (mouse IgG anti-human CD54) binding to Molt3 T-cells after peptide incubation; type: cell-based; conditions: mAb CD54; peptide 4550 μM; average ± standard error of runs
T2 construct: host or cells: Molt3 human T-cell leukemia line
T2 sequence (P05362 28-532): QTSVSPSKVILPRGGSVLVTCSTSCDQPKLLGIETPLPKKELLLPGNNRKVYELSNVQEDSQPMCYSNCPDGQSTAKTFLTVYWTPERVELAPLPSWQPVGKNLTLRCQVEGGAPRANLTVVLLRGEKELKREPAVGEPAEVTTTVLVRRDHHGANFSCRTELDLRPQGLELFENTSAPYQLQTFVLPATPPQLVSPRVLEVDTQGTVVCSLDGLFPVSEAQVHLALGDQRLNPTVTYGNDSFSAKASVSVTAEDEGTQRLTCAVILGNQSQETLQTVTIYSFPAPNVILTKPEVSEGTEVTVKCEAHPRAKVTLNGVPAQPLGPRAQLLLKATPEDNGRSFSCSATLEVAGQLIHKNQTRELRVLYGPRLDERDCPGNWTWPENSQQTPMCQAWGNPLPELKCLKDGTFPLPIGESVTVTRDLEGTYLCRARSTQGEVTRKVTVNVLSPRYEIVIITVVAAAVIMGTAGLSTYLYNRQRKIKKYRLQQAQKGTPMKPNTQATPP

[5] = peptide 4550 μM, negative = blocking

| Substance | Fluorescence, % change from control of the medium fluorescence intensity [1, 5] [%] | MTT % Viability ([2]; peptide 460 μM) [%] | MTT % Viability ([2]; peptide 910 μM) [%] | MTT % Viability ([2]; peptide 1820 μM) [%] | Homotypic Adhesion Amount ([3]; peptide 460 μM) | Homotypic Adhesion Effect ([3]; peptide 460 μM) | Homotypic Adhesion Effect ([3]; peptide 910 μM) | Homotypic Adhesion Amount ([3]; peptide 1820 μM) | Homotypic Adhesion Effect ([3]; peptide 1820 μM) | Fluorescence, % change from control of the medium fluorescence intensity [4] [%] | MTT % Viability ([2]; peptide 115 μM) [%] | MTT % Viability ([2]; peptide 230 μM) [%] | Homotypic Adhesion Effect ([3]; peptide 115 μM) | Homotypic Adhesion Effect ([3]; peptide 230 μM) | Homotypic Adhesion Amount ([3]; peptide 910 μM) | other results |
| --- | --- | --- | --- | --- | --- | --- | --- | --- | --- | --- | --- | --- | --- | --- | --- | --- |
| LJCRF-1: ICAM-1 based short-chain peptide, Sequence ID No. 6 (QTSVSPSKVILPRGGSVLVTG) | -29 ± 3 | 93 | 92 | 66 | +++ | Block | Block | +++ | Block | – | – | – | – | – | – | Fluorescence, % change from control of the medium fluorescence intensity ([1]; peptide 2275 μM): -12 ± 2%; blocking efficiency ([1]; single above-average run (FIGS. 2, 3), peptide 4550 μM, anti-CD11a): 65% |
| LJCRF-3: ICAM-1 derived short-chain peptide, Sequence ID No. 12 (KELLLPGNNRKVYELSNVQEDSQP) | -13 ± 19 | – | – | – | – | – | – | – | – | – | – | – | – | – | – | MTT % Viability [2]: 38% |
| LJCRF-5: LFA-1α derived short-chain peptide, Sequence ID No. 17 (GVDVDQDGETELIGAPLFYGEQRG) | – | 81 | 52 | 20 | – | Block | Block | ++++ | Block | -17 | 95 | 84 | Block | Block | ++++ | metabolic activity by MTT ([2]; peptide 1820 μM): decrease in metabolic activity |
| LJCRF-6: LFA-1α (insert) based short-chain peptide, Sequence ID No. 18 (ITDGEATDSGNIDAAKDIIYIIGI) | – | – | – | – | – | – | almost total inhibition | +++ | Block | -4 | – | – | – | – | – | – |
| MC-1-80: ICAM-1 derived short-chain peptide, Sequence ID No. 9 (LPRGGSVLVTG) | – | – | – | – | – | – | – | – | – | – | – | – | – | – | – | metabolic activity / cellular respiration by MTT ([2]; peptide 910 μM): enhanced |
| SC-3-223: LFA-1β derived peptide, identical to LJCRF-4 (Sequence ID No. 16), tested separately (DLSYSLDDLRNVKKLGGDLLRALNE) | – | 112 | 108 | 75 | +++ | Block | Block | ++++ | Block | – | 103 | 109 | Block | Block | ++++ | Homotypic Adhesion Amount ([3]; peptide 230 μM): +++ |
